Results as given in US20240261418A1, “SOS1 DEGRADING AGENT AND PREPARATION METHOD THEREFOR AND APPLICATION THEREOF” (SHANGHAI LEADINGTAC PHARMACEUTICAL CO. LTD., priority 2021, published 2024).

Molecular target: T1, SOS1 protein (Homo sapiens, UniProt Q07889)
T1 sequence (Q07889 1-1333): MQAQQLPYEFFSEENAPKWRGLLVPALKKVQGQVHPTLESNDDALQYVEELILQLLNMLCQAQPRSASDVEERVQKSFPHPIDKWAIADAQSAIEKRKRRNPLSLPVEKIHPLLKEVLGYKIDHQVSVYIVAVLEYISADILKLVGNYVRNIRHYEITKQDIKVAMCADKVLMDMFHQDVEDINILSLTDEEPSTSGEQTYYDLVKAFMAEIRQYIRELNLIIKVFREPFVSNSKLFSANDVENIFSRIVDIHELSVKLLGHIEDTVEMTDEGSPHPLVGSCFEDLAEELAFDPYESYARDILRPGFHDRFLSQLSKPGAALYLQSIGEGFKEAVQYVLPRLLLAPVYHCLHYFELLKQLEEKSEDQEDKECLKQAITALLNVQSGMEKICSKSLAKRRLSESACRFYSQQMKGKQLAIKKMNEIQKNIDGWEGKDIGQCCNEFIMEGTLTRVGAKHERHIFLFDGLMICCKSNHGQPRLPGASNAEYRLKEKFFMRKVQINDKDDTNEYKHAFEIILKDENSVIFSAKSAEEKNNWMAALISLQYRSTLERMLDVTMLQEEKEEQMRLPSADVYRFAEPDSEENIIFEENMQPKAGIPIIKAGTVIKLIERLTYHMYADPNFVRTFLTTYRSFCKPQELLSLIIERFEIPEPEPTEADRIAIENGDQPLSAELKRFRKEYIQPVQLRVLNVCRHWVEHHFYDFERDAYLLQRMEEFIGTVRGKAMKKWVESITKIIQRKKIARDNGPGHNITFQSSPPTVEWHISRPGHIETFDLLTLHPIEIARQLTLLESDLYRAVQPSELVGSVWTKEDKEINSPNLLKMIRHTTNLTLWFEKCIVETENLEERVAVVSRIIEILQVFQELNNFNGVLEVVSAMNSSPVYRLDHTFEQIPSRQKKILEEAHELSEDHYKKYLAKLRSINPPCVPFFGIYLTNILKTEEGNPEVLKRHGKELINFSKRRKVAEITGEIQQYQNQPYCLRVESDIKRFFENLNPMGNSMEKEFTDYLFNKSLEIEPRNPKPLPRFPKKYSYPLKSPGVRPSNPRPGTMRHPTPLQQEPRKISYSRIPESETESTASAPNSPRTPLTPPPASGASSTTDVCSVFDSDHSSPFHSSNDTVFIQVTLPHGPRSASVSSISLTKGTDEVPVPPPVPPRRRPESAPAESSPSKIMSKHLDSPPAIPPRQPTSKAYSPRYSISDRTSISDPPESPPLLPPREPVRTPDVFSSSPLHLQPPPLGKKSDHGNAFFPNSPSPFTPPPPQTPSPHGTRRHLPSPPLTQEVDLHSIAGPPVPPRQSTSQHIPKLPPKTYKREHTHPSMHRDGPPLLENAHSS
Test: SOS1 degradation assay (Western blot) in DLD-1 cells
Format: cell-based
Set-up: host or cells: NCI-H358, A-427, SW-620, DLD-1 (human cancer cell lines)
Conditions: DLD-1 (KRAS G13D), 24 h
Description: Test Example 2: SOS1 Degradation Assay
The degradation of SOS1 by the compounds was investigated on KRAS G12C mutant human non-small cell lung cancer cells NCI-H358 (ATCC or Stem Cell Bank, Chinese Academy of Sciences), KRAS G12D mutant human lung cancer cells A-427 (ATCC), KRAS G12V mutant human colorectal adenocarcinoma cells SW-620 (ATCC), and KRAS G13D mutant human colorectal adenocarcinoma epithelial cells DLD-1 (ATCC). The specific procedures were as follows:
0.95 mL of cells were seeded into each well of a 24-well cell culture plate to achieve a cell density of 5×10^5 cells/well; the cell plate was incubated in an incubator at 37° C. with 5% CO2 overnight. Then 50 μL of the compound solution after dilution was added to each of the wells with the corresponding cells, so that the final concentration of the compound was in a range of 0.03-3000 nM. The final concentration of DMSO was 0.25%.
After dosing, the cell plate was incubated in an incubator at 37° C. with 5% CO2 for 24 h. The cell culture medium in the 24-well plate was removed, and the plate was washed twice with 1×PBS. 180 μL of RIPA (strong) lysis buffer (Beyotime, P0013B) supplemented with 1 mM phenylmethylsulfonyl fluoride, a protease inhibitor mixture (Beyotime, P1008), and a protease phosphatase inhibitor mixture (Beyotime, P1045) was added to lyse adherent NCI-H358 cells at the bottom of the cell culture plate. After the plate was left to stand on ice for 30 min, the protein lysate in each well was transferred to a 1.5 mL centrifuge tube and centrifuged at 15000 g for 20 min at 4° C. […] The concentration of total protein in the cell lysate supernatant was determined using the BCA Protein Quantification Kit (Tiangen, PA115-02). […]
The concentration of total protein in the cell lysate was determined by BCA. […] After the blocking, the PVDF membrane was incubated with an SOS1 primary antibody (Abcam, ab140621) at 4° C. overnight, washed with a TBST buffer (2.4 g of Tris, 8.8 g of NaCl, 1.5 mL of Tween 20, with pH adjusted to 7.4, with the volume brought to 1 L) for 30 min (10 min/time), incubated with a secondary antibody (Abcam, ab205718) at room temperature for 2 h, washed with a TBST buffer for 30 min (10 min/time), and finally incubated with Clarity Western ECL Substrate (BIO-RAD, 170-5061) for 5 min for luminescence and color development, and a chemiluminescence imaging system (Clinx, ChemiScope 6200 Touch) was used for color development and protein mapping. […] The gray correction value for each sample was calculated by the formula: gray correction value=(gray value of target protein/gray value of corresponding internal reference)×103. Then the degradation rate was calculated by comparing the gray correction value with the gray correction value of the control group. […]

DC50 [µM] | Dmax [%] | Structure (SMILES)
≤ 0.05 | 80 to 100 | COc1cc2nc(C)nc(N[C@H](C)c3cc(-c4c(Cl)cccc4CN(C)C)cs3)c2cc1[C@H]1CC[C@H](C(=O)N2CCN(CC3CCC4(CC3)CCN(C(=O)c3ccc(Cl)c(N5CCC(=O)NC5=O)c3)CC4)CC2)CC1 [Example 1, 1-(2-chloro-5-(9-((4-((1R,4R)-4-(4-(((R)-1-(4-(2-chloro-6-((dimethylamino)methyl)phenyl)thien-2-yl)ethyl)amino)-7-methoxy-2-methylquinazolin-6-yl)cyclohexane-1-carbonyl)piperazin-1-yl)methyl)-3-azaspiro[5.5]undecane-3-carbonyl)phenyl)dihydropyrimidine-2,4(1H,3H)-dione]
≤ 0.05 | 80 to 100 | COc1cc2nc(C)nc(N[C@H](C)c3cc(-c4c(Cl)cccc4CN(C)C)cs3)c2cc1[C@H]1CC[C@H](C(=O)N2CCC(CCOCC3CCN(C(=O)c4ccc(Cl)c(N5CCC(=O)NC5=O)c4)CC3)CC2)CC1 [Example 5, 1-(2-chloro-5-(4-((2-(1-((1R,4R)-4-(4-(((R)-1-(4-(2-chloro-6-((dimethylamino)methyl)phenyl)thien-2-yl)ethyl)amino)-7-methoxy-2-methylquinazolin-6-yl)cyclohexane-1-carbonyl)piperidin-4-yl)ethoxy)methyl)piperidine-1-carbonyl)phenyl)dihydropyrimidine-2,4(1H,3H)-dione]
